Data taken from paper PMC12028158, “Synthesis and In Vitro Evaluation of the Anticancer Effect of Novel Phosphonium Vindoline Derivatives” (International Journal of Molecular Sciences, 2025).
Read-outs that look alike come from different tables or passages of the source.

Key:
Type in all cases: cell-based
K-562 [1] = experiment: NCI60 one-dose screen; conditions: Homo sapiens
PC-3 = experiment: NCI60 one-dose screen; conditions: Homo sapiens; PC-3, 10 μM, one-dose; read-out: Growth percent
SNB-75 [2] = experiment: NCI60 one-dose screen; conditions: Homo sapiens
MDA-MB231ATCC = experiment: NCI60 five-dose screen; conditions: Homo sapiens, MDA-MB-231
SF-268 = experiment: NCI60 five-dose screen; conditions: Homo sapiens
NCI/ADR-RES = experiment: NCI60 five-dose screen; conditions: Homo sapiens
NCI-H322M = experiment: NCI60 five-dose screen; conditions: Homo sapiens
M14 = experiment: NCI60 five-dose screen; conditions: Homo sapiens
A549/ATCC [3] = experiment: NCI60 five-dose screen; conditions: Homo sapiens
SN12C = experiment: NCI60 five-dose screen; conditions: Homo sapiens
HS 578T [4] = experiment: NCI60 five-dose screen; conditions: Homo sapiens
HS 578T [5] = experiment: NCI60 one-dose screen; conditions: Homo sapiens, read-out: Growth percent
HCC-2998 = experiment: NCI60 five-dose screen; conditions: Homo sapiens
TK-10 = experiment: NCI60 one-dose screen; conditions: Homo sapiens
HOP-92 = experiment: NCI60 one-dose screen; conditions: Homo sapiens
NCI-H226 = experiment: NCI60 five-dose screen; conditions: Homo sapiens
SK-OV-3 = experiment: NCI60 one-dose screen; conditions: Homo sapiens
CAKI-1 = experiment: NCI60 five-dose screen; conditions: Homo sapiens
SNB-75 [6] = experiment: NCI60 five-dose screen; conditions: Homo sapiens
MOLT-4 = experiment: NCI60 one-dose screen; conditions: Homo sapiens
UACC-257 = experiment: NCI60 one-dose screen; conditions: Homo sapiens
U251 = experiment: NCI60 five-dose screen; conditions: Homo sapiens
CCRF-CEM = experiment: NCI60 one-dose screen; conditions: Homo sapiens, read-out: Growth percent
A498 = experiment: NCI60 one-dose screen; conditions: Homo sapiens
BT-549 = experiment: NCI60 five-dose screen; conditions: Homo sapiens
COLO 205 = experiment: NCI60 five-dose screen; conditions: Homo sapiens
SR = experiment: NCI60 five-dose screen; conditions: Homo sapiens, Leukemia, five-dose, read-out: GI50
OVCAR-5 = experiment: NCI60 five-dose screen; conditions: Homo sapiens
K-562 [7] = experiment: NCI60 five-dose screen; conditions: Homo sapiens, K562, K-562, Leukemia, read-out: GI50
SK-MEL-2 = experiment: NCI60 five-dose screen; conditions: Homo sapiens
786-0 = experiment: NCI60 one-dose screen; conditions: Homo sapiens
UACC-62 = experiment: NCI60 one-dose screen; conditions: Homo sapiens
UO-31 = experiment: NCI60 five-dose screen; conditions: Homo sapiens
A549/ATCC [8] = experiment: NCI60 one-dose screen; conditions: Homo sapiens
MDA-MB-468 = experiment: NCI60 one-dose screen; conditions: Homo sapiens
MDA-MB-231/ATCC = experiment: NCI60 one-dose screen; conditions: Homo sapiens
[9] = system: 60 human tumor cell lines (NCI60); experiment: NCI60 five-dose screen, overall mean
T-47D = experiment: NCI60 one-dose screen; conditions: Homo sapiens, T47D, read-out: Growth percent
[10] = K562, K-562, 10 μM, one-dose, read-out: Growth percent
[11] = SNB-75, 10 μM, one-dose, read-out: Growth percent
[12] = TK-10, 10 μM, one-dose, read-out: Growth percent
[13] = HOP-92, 10 μM, one-dose, read-out: Growth percent
[14] = SK-OV-3, 10 μM, one-dose, read-out: Growth percent
[15] = MOLT-4, 10 μM, one-dose, read-out: Growth percent
[16] = UACC-257, 10 μM, one-dose, read-out: Growth percent
[17] = A498, 10 μM, one-dose, read-out: Growth percent
[18] = 786-0, 10 μM, one-dose, read-out: Growth percent
[19] = UACC-62, 10 μM, one-dose, read-out: Growth percent
[20] = A549/ATCC, 10 μM, one-dose, read-out: Growth percent
[21] = MDA-MB-468, 10 μM, one-dose, read-out: Growth percent

CC[C@]12C=CCN3CC[C@@]4(c5ccc(OC)cc5N(C)[C@H]4[C@@](O)(C(=O)OC)[C@@H]1OC(=O)CCC[P+](c1cc(C)c(OC)c(C)c1)(c1cc(C)c(OC)c(C)c1)c1cc(C)c(OC)c(C)c1)[C@@H]32 [9e]
activity at 10 µM (K-562 [1]; [10]): -97.5%
activity at 10 µM (PC-3): -97.7%
activity at 10 µM (SNB-75 [2]; [11]): -98.9%
GI50 (MDA-MB231ATCC; MDA-MB231ATCC, Breast Cancer, five-dose, read-out: GI50): 0.293 µM
GI50 (SF-268; SF-268, CNS Cancer, five-dose, read-out: GI50): 0.231 µM
GI50 (NCI/ADR-RES; Ovarian Cancer, five-dose, read-out: GI50): 5.11 µM
GI50 (NCI-H322M; Non-small Cell Lung Cancer, five-dose, read-out: GI50): 0.342 µM
GI50 (M14; M14, Melanoma, five-dose, read-out: GI50): 0.299 µM
GI50 (A549/ATCC [3]; A549/ATCC, Non-small Cell Lung Cancer, five-dose, read-out: GI50): 0.275 µM
GI50 (SN12C; Renal Cancer, five-dose, read-out: GI50): 0.159 µM
GI50 (HS 578T [4]; HS 578T, Breast Cancer, five-dose, read-out: GI50): 0.185 µM
activity at 10 µM (HS 578T [5]; HS 578T, 10 μM, one-dose): -98.2%
GI50 (HCC-2998; HCC-2998, Colon Cancer, five-dose, read-out: GI50): 0.195 µM
activity at 10 µM (TK-10; [12]): -99.3%
activity at 10 µM (HOP-92; [13]): -98.9%
GI50 (NCI-H226; NCI-H226, Non-small Cell Lung Cancer, five-dose, read-out: GI50): 0.23 µM
activity at 10 µM (SK-OV-3; [14]): -97.7%
GI50 (CAKI-1; CAKI-1, Renal Cancer, five-dose, read-out: GI50): 0.313 µM
GI50 (SNB-75 [6]; SNB-75, CNS Cancer, five-dose, read-out: GI50): 0.195 µM
activity at 10 µM (MOLT-4; [15]): -98.3%
activity at 10 µM (UACC-257; [16]): -99.3%
GI50 (U251; U-251, CNS cancer U251, text, read-out: GI50): < 0.1 µM
GI50 (U251; U-251, U251, CNS Cancer, five-dose, read-out: GI50): 0.054 µM
activity at 10 µM (CCRF-CEM; 10 μM, one-dose): -95.7%
activity at 10 µM (A498; [17]): -98.9%
GI50 (BT-549; BT-549, Breast Cancer, five-dose, read-out: GI50): 0.17 µM
GI50 (COLO 205; COLO 205, COLO 205, Colon Cancer, five-dose, read-out: GI50): 0.091 µM
GI50 (COLO 205; COLO 205, colon cancer COLO-205, text, read-out: GI50): < 0.1 µM
GI50 (SR): 0.144 µM
GI50 (OVCAR-5; OVCAR-5, Ovarian Cancer, five-dose, read-out: GI50): 0.339 µM
GI50 (K-562 [7]; five-dose): 0.195 µM
GI50 (SK-MEL-2; SK-MEL-2, SK-MEL-2, Melanoma, five-dose, read-out: GI50): 0.06 µM
GI50 (SK-MEL-2; SK-MEL-2, melanoma SK-MEL-2, text, read-out: GI50): < 0.1 µM
activity at 10 µM (786-0; [18]): -97.9%
activity at 10 µM (UACC-62; [19]): -97.7%
GI50 (UO-31; UO-31, Renal Cancer, five-dose, read-out: GI50): 1.48 µM
activity at 10 µM (A549/ATCC [8]; [20]): -92.9%
activity at 10 µM (MDA-MB-468; [21]): -99.4%

CC[C@]12C=CCN3CC[C@@]4(c5ccc(OC)cc5N(C)[C@H]4[C@@](O)(C(=O)OC)[C@@H]1OC(=O)CCCC[P+](c1ccccc1)(c1ccccc1)c1ccccc1)[C@@H]32 [compound 4, reference compound]
activity at 10 µM (K-562 [1]; K562, read-out: Growth percent): 21.7%
activity at 10 µM (SNB-75 [2]; SNB-75, read-out: Growth percent): -12.8%
GI50 (MDA-MB231ATCC): 0.37 µM
GI50 (SF-268; SF-268): 0.634 µM
GI50 (NCI/ADR-RES): > 100 µM
GI50 (NCI-H322M): 3 µM
GI50 (M14; M14): 1.79 µM
activity at 10 µM (MDA-MB-231/ATCC; MDA-MB-231, read-out: Growth percent): -2.41%
GI50 (A549/ATCC [3]; A549): 1.02 µM
GI50 (SN12C): 0.467 µM
GI50 ([9]; read-out: GI50 Mean, mean over all 60 human cancer cell lines): 3.52 µM
GI50 (HS 578T [4]; Hs-578T): 1.23 µM
activity at 10 µM (HS 578T [5]; Hs-578T): 9.79%
GI50 (HCC-2998; HCC 2998): 0.367 µM
activity at 10 µM (TK-10; TK-10, read-out: Growth percent): 48.6%
activity at 10 µM (HOP-92; HOP-92, read-out: Growth percent): -30%
GI50 (NCI-H226; NCI-H226): 1.93 µM
activity at 10 µM (SK-OV-3; SK-OV-3, read-out: Growth percent): -2.96%
GI50 (CAKI-1; CAKI-1): 2.82 µM
GI50 (SNB-75 [6]; SNB-75): 0.221 µM
activity at 10 µM (MOLT-4; MOLT-4, read-out: Growth percent): 5.66%
activity at 10 µM (T-47D): 4.99%
activity at 10 µM (UACC-257; UACC-257, read-out: Growth percent): 2.15%
GI50 (U251; U-251): 0.312 µM
activity at 10 µM (CCRF-CEM): 15.6%
activity at 10 µM (A498; A498, read-out: Growth percent): 52.2%
GI50 (BT-549; BT-549): 0.583 µM
GI50 (COLO 205; COLO 205): 0.242 µM
GI50 (OVCAR-5; OVCAR-5): 1.82 µM
GI50 (SK-MEL-2; SK-MEL-2): 0.279 µM
activity at 10 µM (786-0; 786-0, read-out: Growth percent): 57.2%
activity at 10 µM (UACC-62; UACC-62, read-out: Growth percent): -6.54%
GI50 (UO-31; UO-31): 12.2 µM
activity at 10 µM (A549/ATCC [8]; A549, read-out: Growth percent): 22.1%
activity at 10 µM (MDA-MB-468; MDA-MB-468, read-out: Growth percent): -63.9%

CCC12C=CCN3CCC4(c5ccc(OC)cc5N(C)C4C(O)(C(=O)OC)C1OC(=O)c1ccc(C[P+](c4ccccc4)(c4ccccc4)c4ccccc4)cc1)C32 (centres unmarked) [compound 12]
activity at 10 µM (K-562 [1]; [10]): -54.9%
activity at 10 µM (PC-3): -21.9%
activity at 10 µM (SNB-75 [2]; [11]): -61.7%
GI50 (MDA-MB231ATCC; MDA-MB231ATCC, Breast Cancer, read-out: GI50): 0.686 µM
GI50 (SF-268; SF-268, CNS Cancer, read-out: GI50): 1.28 µM
GI50 (NCI/ADR-RES; Ovarian Cancer, read-out: GI50): > 100 µM
GI50 (NCI-H322M; Non-small Cell Lung Cancer, read-out: GI50): 4.76 µM
GI50 (M14; M14, Melanoma, read-out: GI50): 1.35 µM
activity at 10 µM (MDA-MB-231/ATCC; MDA-MB-231/ATCC, 10 μM, one-dose, read-out: Growth percent): -91.5%
GI50 (A549/ATCC [3]; A549/ATCC, Non-small Cell Lung Cancer, read-out: GI50): 2.09 µM
GI50 (SN12C; Renal Cancer, read-out: GI50): 0.708 µM
GI50 ([9]; mean over all 60 human cancer cell lines, read-out: GI50 Mean): 4.33 µM
GI50 (HS 578T [4]; HS 578T, Breast Cancer, read-out: GI50): 1.27 µM
activity at 10 µM (HS 578T [5]; HS 578T, 10 μM, one-dose): -36.6%
GI50 (HCC-2998; HCC-2998, Colon Cancer, read-out: GI50): 0.991 µM
activity at 10 µM (TK-10; [12]): 21.4%
activity at 10 µM (HOP-92; [13]): -73.4%
GI50 (NCI-H226; NCI-H226, Non-small Cell Lung Cancer, read-out: GI50): 1.54 µM
activity at 10 µM (SK-OV-3; [14]): -13.2%
GI50 (CAKI-1; CAKI-1, Renal Cancer, read-out: GI50): 3.26 µM
GI50 (SNB-75 [6]; SNB-75, CNS Cancer, read-out: GI50): 1.11 µM
activity at 10 µM (MOLT-4; [15]): -53%
activity at 10 µM (T-47D; T-47D, 10 μM, one-dose): 7.1%
activity at 10 µM (UACC-257; [16]): -67.6%
GI50 (U251; U-251, U251, CNS Cancer, read-out: GI50): 0.644 µM
activity at 10 µM (CCRF-CEM; 10 μM, one-dose): -46.4%
activity at 10 µM (A498; [17]): 70.2%
GI50 (BT-549; BT-549, Breast Cancer, read-out: GI50): 0.538 µM
GI50 (COLO 205; COLO 205, COLO 205, Colon Cancer, read-out: GI50): 0.313 µM
GI50 (OVCAR-5; OVCAR-5, Ovarian Cancer, read-out: GI50): 1.99 µM
GI50 (K-562 [7]): 0.448 µM
GI50 (SK-MEL-2; SK-MEL-2, SK-MEL-2, Melanoma, read-out: GI50): 1.27 µM
activity at 10 µM (786-0; [18]): -47.8%
activity at 10 µM (UACC-62; [19]): -86.9%
GI50 (UO-31; UO-31, Renal Cancer, read-out: GI50): 20 µM
activity at 10 µM (A549/ATCC [8]; [20]): 31%
activity at 10 µM (MDA-MB-468; [21]): -49.2%
